Measured values published in PubChem BioAssay (NCI).
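These data come from cells grown in 96-well plates and exposed to compound for 48 hours at five concentrations. TGI is the concentration that stops growth completely.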

How the values were obtained:
Assay in all cases: inhibition of tumour cell growth, NCI panel, 48 h
786-0 renal = tested on: 786-0 renal
ACHN renal = tested on: ACHN renal
CAKI-1 renal = tested on: CAKI-1 renal
COLO 205 colon = tested on: COLO 205 colon
DMS 114 small cell lung = tested on: DMS 114 small cell lung
DMS 273 small cell lung = tested on: DMS 273 small cell lung
EKVX NSCLC = tested on: EKVX NSCLC
HCC-2998 colon = tested on: HCC-2998 colon
HCT-15 colon = tested on: HCT-15 colon
HOP-18 NSCLC = tested on: HOP-18 NSCLC
HT29 colon = tested on: HT29 colon
K-562 leukemia = tested on: K-562 leukemia
KM12 colon = tested on: KM12 colon
KM20L2 colon = tested on: KM20L2 colon
LXFL 529 NSCLC = tested on: LXFL 529 NSCLC
M14 melanoma = tested on: M14 melanoma
M19-MEL melanoma = tested on: M19-MEL melanoma
MALME-3M melanoma = tested on: MALME-3M melanoma
MOLT-4 leukemia = tested on: MOLT-4 leukemia
NCI-H226 lung = tested on: NCI-H226 lung
NCI-H23 lung = tested on: NCI-H23 lung
NCI-H460 lung = tested on: NCI-H460 lung
NCI-H522 lung = tested on: NCI-H522 lung
OVCAR-3 ovarian = tested on: OVCAR-3 ovarian
OVCAR-4 ovarian = tested on: OVCAR-4 ovarian
OVCAR-5 ovarian = tested on: OVCAR-5 ovarian
OVCAR-8 ovarian = tested on: OVCAR-8 ovarian
RPMI-8226 leukemia = tested on: RPMI-8226 leukemia
RXF 393 renal = tested on: RXF 393 renal
SF-295 CNS = tested on: SF-295 CNS
SF-539 CNS = tested on: SF-539 CNS
SK-MEL-2 melanoma = tested on: SK-MEL-2 melanoma
SK-MEL-28 melanoma = tested on: SK-MEL-28 melanoma
SN12C renal = tested on: SN12C renal
SNB-19 CNS = tested on: SNB-19 CNS
SNB-78 CNS = tested on: SNB-78 CNS
SR leukemia = tested on: SR leukemia
SW-620 colon = tested on: SW-620 colon
TK-10 renal = tested on: TK-10 renal
U251 CNS = tested on: U251 CNS
UACC-257 melanoma = tested on: UACC-257 melanoma
UO-31 renal = tested on: UO-31 renal
A498 renal = tested on: A498 renal
A549 NSCLC = tested on: A549 NSCLC
BT-549 breast = tested on: BT-549 breast
CCRF-CEM leukemia = tested on: CCRF-CEM leukemia
DU-145 prostate = tested on: DU-145 prostate
HCT-116 colon = tested on: HCT-116 colon
HL-60(TB) leukemia = tested on: HL-60(TB) leukemia
HOP-62 NSCLC = tested on: HOP-62 NSCLC
HOP-92 NSCLC = tested on: HOP-92 NSCLC
HS 578T breast = tested on: HS 578T breast
IGROV1 ovarian = tested on: IGROV1 ovarian
LOX IMVI melanoma = tested on: LOX IMVI melanoma
MCF7 breast = tested on: MCF7 breast
MDA-MB-231 breast = tested on: MDA-MB-231 breast
MDA-MB-435 = tested on: MDA-MB-435
MDA-N = tested on: MDA-N
NCI/ADR-RES ovarian = tested on: NCI/ADR-RES ovarian
PC-3 prostate = tested on: PC-3 prostate
SF-268 CNS = tested on: SF-268 CNS
SK-MEL-5 melanoma = tested on: SK-MEL-5 melanoma
SK-OV-3 ovarian = tested on: SK-OV-3 ovarian
SNB-75 CNS = tested on: SNB-75 CNS
T-47D breast = tested on: T-47D breast
UACC-62 melanoma = tested on: UACC-62 melanoma

FC(F)(F)C1(C(F)(F)F)O[SiH]2(OC(C(F)(F)F)(C(F)(F)F)c3ccccc32)c2ccccc21
TGI (786-0 renal): 31.7 µM
TGI (ACHN renal): 78.8 µM
TGI (CAKI-1 renal): 87.1 µM
TGI (COLO 205 colon): 45.2 µM
TGI (DMS 114 small cell lung): 29.1 µM
TGI (DMS 273 small cell lung): 53.2 µM
TGI (EKVX NSCLC): 39.4 µM
TGI (HCC-2998 colon): 37.4 µM
TGI (HCT-15 colon): 25.9 µM
TGI (HOP-18 NSCLC): 75.1 µM
TGI (HT29 colon): 23.2 µM
TGI (K-562 leukemia): 31.6 µM
TGI (KM12 colon): 62.5 µM
TGI (KM20L2 colon): 18.4 µM
TGI (LXFL 529 NSCLC): 38.5 µM
TGI (M14 melanoma): 29.4 µM
TGI (M19-MEL melanoma): 39.4 µM
TGI (MALME-3M melanoma): 42 µM
TGI (MOLT-4 leukemia): 30.5 µM
TGI (NCI-H226 lung): 20.3 µM
TGI (NCI-H23 lung): 24.5 µM
TGI (NCI-H460 lung): 25.5 µM
TGI (NCI-H522 lung): 42 µM
TGI (OVCAR-3 ovarian): 40.6 µM
TGI (OVCAR-4 ovarian): 23.4 µM
TGI (OVCAR-5 ovarian): 28.4 µM
TGI (OVCAR-8 ovarian): 83.9 µM
TGI (RPMI-8226 leukemia): 97.4 µM
TGI (RXF 393 renal): 31.2 µM
TGI (SF-295 CNS): 20.3 µM
TGI (SF-539 CNS): 25.4 µM
TGI (SK-MEL-2 melanoma): 49.3 µM
TGI (SK-MEL-28 melanoma): 72.6 µM
TGI (SN12C renal): 63.1 µM
TGI (SNB-19 CNS): > 100 µM
TGI (SNB-78 CNS): 52.8 µM
TGI (SR leukemia): 37.8 µM
TGI (SW-620 colon): 45.4 µM
TGI (TK-10 renal): 45.5 µM
TGI (U251 CNS): 19.6 µM
TGI (UACC-257 melanoma): 54.6 µM
TGI (UO-31 renal): 30.7 µM

COC(=O)/C(=C\c1cn(C(C)=O)c2ccccc12)P(=O)(OC)OC
TGI (786-0 renal): 46.3 µM
TGI (A498 renal): 31.4 µM
TGI (A549 NSCLC): 35.8 µM
TGI (ACHN renal): 25.4 µM
TGI (BT-549 breast): 29.6 µM
TGI (CAKI-1 renal): 27 µM
TGI (CCRF-CEM leukemia): > 100 µM
TGI (COLO 205 colon): 33.3 µM
TGI (DU-145 prostate): 26.2 µM
TGI (EKVX NSCLC): 38 µM
TGI (HCC-2998 colon): 30.4 µM
TGI (HCT-116 colon): 28 µM
TGI (HCT-15 colon): 28.1 µM
TGI (HL-60(TB) leukemia): > 100 µM
TGI (HOP-62 NSCLC): 28.8 µM
TGI (HOP-92 NSCLC): 33.8 µM
TGI (HS 578T breast): > 100 µM
TGI (HT29 colon): 29.7 µM
TGI (IGROV1 ovarian): 44.9 µM
TGI (K-562 leukemia): > 100 µM
TGI (LOX IMVI melanoma): 20.3 µM
TGI (M14 melanoma): 28.5 µM
TGI (MALME-3M melanoma): 52 µM
TGI (MCF7 breast): 26.4 µM
TGI (MDA-MB-231 breast): 24.1 µM
TGI (MDA-MB-435): 64.7 µM
TGI (MDA-N): 32.4 µM
TGI (MOLT-4 leukemia): > 100 µM
TGI (NCI-H226 lung): > 100 µM
TGI (NCI-H23 lung): 30.2 µM
TGI (NCI-H460 lung): 31.1 µM
TGI (NCI-H522 lung): 23.2 µM
TGI (NCI/ADR-RES ovarian): > 100 µM
TGI (OVCAR-3 ovarian): 32.4 µM
TGI (OVCAR-4 ovarian): 30.2 µM
TGI (OVCAR-8 ovarian): 68.9 µM
TGI (PC-3 prostate): 39.8 µM
TGI (RPMI-8226 leukemia): 93.9 µM
TGI (RXF 393 renal): 32.8 µM
TGI (SF-268 CNS): 54 µM
TGI (SF-295 CNS): 28.5 µM
TGI (SF-539 CNS): 38.7 µM
TGI (SK-MEL-28 melanoma): 55.1 µM
TGI (SK-MEL-5 melanoma): 26.5 µM
TGI (SK-OV-3 ovarian): 39.2 µM
TGI (SN12C renal): 28 µM
TGI (SNB-19 CNS): 32 µM
TGI (SNB-75 CNS): 26.4 µM
TGI (SR leukemia): > 100 µM
TGI (SW-620 colon): 40.7 µM
TGI (T-47D breast): 33.1 µM
TGI (TK-10 renal): 36 µM
TGI (U251 CNS): 29.5 µM
TGI (UACC-62 melanoma): 31.1 µM
TGI (UO-31 renal): 26.1 µM
